Measured values: patent publication US12570613B2, “Imidazoquinoline or benzoindazolone compound and intermediate for preparing same” (LMITO THERAPEUTICS INC., priority 2020, dated 2026)

Target: NQO1 protein (Homo sapiens, UniProt P15559)
Assay: In vitro NQO1 enzyme activity assay (cytochrome C reduction, absorbance at 550 nm)
Type: biochemical
Conditions: NQO1 2 ng
Procedure: In order to evaluate the activity of the synthesized compound in NQO1, the experiments were performed as follows:
The synthesized compound was dissolved in DMSO to make a 10 mM stock solution, which was further diluted with DMSO to 250 μM so as to prepare a working solution. For experimental groups, the working solution of the compound was added to an enzyme reaction solution in which 50 μL of 1.54 mM Cytochrome C solution was added to 900 μL of 50 mM Tris-HCl (pH7.5) containing 0.14% BSA. For negative control groups, DMSO not containing the compound of the invention was added to the enzyme reaction solution as above. For each experimental and control group, 20 μL of 100 ng/mL NQO1 protein was added, and then 10 μL of 20 mM NADH was added to bring up the total volume to 1 mL. The change of absorbance was measured at 550 nm for 10 minutes using 1 mL cuvette. The kinetics of reaction was measured by the increase of absorbance as the cytochrome C was reduced at 550 nm over 10 minutes. The activity of NQO1 was measured by the amount of cytochrome C that is being reduced (nmol cytochrome C that was reduced/min/ug NQO1 protein). • Absorption coefficient of Cytochrome C: 21.1 (μmol/mL)^−1cm^−1 • BSA: Bovine Serum Albumin • […]: Tris(hydroxymethyl)aminomethane hydrochloride (buffer solution) • Equipment=Cary 100 UV-Vis Spectrophotometer • The results are shown in Tables 1 to 8.

Sequence of NQO1 protein (P15559 whole entry, species assumed): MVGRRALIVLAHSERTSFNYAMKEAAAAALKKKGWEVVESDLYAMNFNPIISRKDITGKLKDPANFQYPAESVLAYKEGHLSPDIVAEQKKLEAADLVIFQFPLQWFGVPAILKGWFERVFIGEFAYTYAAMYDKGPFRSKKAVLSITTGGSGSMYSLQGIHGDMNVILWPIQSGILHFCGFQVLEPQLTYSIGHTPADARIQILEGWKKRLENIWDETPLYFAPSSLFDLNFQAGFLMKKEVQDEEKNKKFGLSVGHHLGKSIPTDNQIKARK

| Compound | NQO1 activity assay Cytochrome C reduced/min/μg NQO1 protein (10 nM Compound (Table 1)) | other results |
| --- | --- | --- |
| O=C1C(=O)c2ncc(-c3ccccc3)n2-c2ccccc21 [Compound 1, 1-Phenylimidazo[1,2-a]quinolin-4,5-dione] | 658 nmol cytochrome C that was reduced/min/ug NQO1 protein | – |
| O=C1C(=O)c2ncc(-c3ccc(F)cc3)n2-c2ccccc21 [Compound 2, 1-(4-Fluorophenyl)imidazo[1,2-a]quinolin-4,5-dione] | 455 nmol cytochrome C that was reduced/min/ug NQO1 protein | – |
| CC(C)c1cnc2n1-c1ccccc1C(=O)C2=O [Compound 3, 1-Isopropylimidazo[1,2-a]quinolin-4,5-dione] | 755 nmol cytochrome C that was reduced/min/ug NQO1 protein | – |
| O=C1C(=O)c2ncc(-c3ccc(C(F)(F)F)cc3)n2-c2ccccc21 [Compound 4, 1-(4-(Trifluoromethyl)phenyl)imidazo[1,2-a]quinoline-4,5-dione] | 170 nmol cytochrome C that was reduced/min/ug NQO1 protein | – |
| CCOC(=O)c1cn2c(n1)C(=O)C(=O)c1ccccc1-2 [Compound 5, Ethyl 4,5-dioxo-4,5-dihydroimidazo[1,2-a]quinolin-2-carboxylate] | 816 nmol cytochrome C that was reduced/min/ug NQO1 protein | – |
| CCOC(=O)c1nc2n(c1-c1ccccc1)-c1ccccc1C(=O)C2=O [Compound 6, Ethyl 4,5-dioxo-1-phenyl-4,5-dihydroimidazo[1,2-a]quinolin-2-carboxylate] | 916 nmol cytochrome C that was reduced/min/ug NQO1 protein | – |
| CN(C)C(=O)c1nc2n(c1-c1ccccc1)-c1ccccc1C(=O)C2=O [Compound 7, N,N-dimethyl-4,5-dioxo-1-phenyl-4,5-dihydroimidazo[1,2-a]quinolin-2-carboxamide] | 96 nmol cytochrome C that was reduced/min/ug NQO1 protein | – |
| CNC(=O)c1nc2n(c1-c1ccccc1)-c1ccccc1C(=O)C2=O [Compound 8, N-methyl-4,5-dioxo-1-phenyl-4,5-dihydroimidazo[1,2-a]quinolin-2-carboxamide] | 112 nmol cytochrome C that was reduced/min/ug NQO1 protein | – |
| Cc1nn(-c2ccccc2)c2c1C(=O)C(=O)c1ccccc1-2 [Compound 9, 3-Methyl-1-phenyl-1H-benzo[g]indazol-4,5-dione] | 932 nmol cytochrome C that was reduced/min/ug NQO1 protein | NQO1 activity assay Cytochrome C reduced/min/μg NQO1 protein (50 nM Compound (Table 2)): 2093 nmol cytochrome C that was reduced/min/ug NQO1 protein; NQO1 activity assay Cytochrome C reduced/min/μg NQO1 protein (50 nM Compound (Table 3)): 3089 nmol cytochrome C that was reduced/min/ug NQO1 protein; NQO1 activity assay Cytochrome C reduced/min/μg NQO1 protein (50 nM Compound (Table 4)): 3864 nmol cytochrome C that was reduced/min/ug NQO1 protein; NQO1 activity assay Cytochrome C reduced/min/μg NQO1 protein (50 nM Compound (Table 5)): 3091 nmol cytochrome C that was reduced/min/ug NQO1 protein; NQO1 activity assay Cytochrome C reduced/min/μg NQO1 protein (50 nM Compound (Table 6)): 2885 nmol cytochrome C that was reduced/min/ug NQO1 protein; NQO1 activity assay Cytochrome C reduced/min/μg NQO1 protein (50 nM Compound (Table 7)): 2892 nmol cytochrome C that was reduced/min/ug NQO1 protein; NQO1 activity assay Cytochrome C reduced/min/μg NQO1 protein (50 nM Compound (Table 8)): 2709 nmol cytochrome C that was reduced/min/ug NQO1 protein |
| CC(C)c1nn(-c2ccccc2)c2c1C(=O)C(=O)c1ccccc1-2 [Compound 10, 3-Isopropyl-1-phenyl-1H-benzo[g]indazol-4,5-dione] | 138 nmol cytochrome C that was reduced/min/ug NQO1 protein | – |
| CCCCCCCc1nn(-c2ccccc2)c2c1C(=O)C(=O)c1ccccc1-2 [Compound 11, 3-Heptyl-1-phenyl-1H-benzo[g]indazol-4,5-dione] | 203 nmol cytochrome C that was reduced/min/ug NQO1 protein | – |
| O=C1C(=O)c2c(CCc3ccccc3)nn(-c3ccccc3)c2-c2ccccc21 [Compound 12, 3-Phenethyl-1-phenyl-1H-benzo[g]indazol-4,5-dione] | 225 nmol cytochrome C that was reduced/min/ug NQO1 protein | – |
| O=C1C(=O)c2c(-c3ccccc3)nn(-c3ccccc3)c2-c2ccccc21 [Compound 13, 1,3-Diphenyl-1H-benzo[g]indazol-4,5-dione] | 198 nmol cytochrome C that was reduced/min/ug NQO1 protein | – |
| O=C1C(=O)c2c(-c3ccc(F)cc3)nn(-c3ccccc3)c2-c2ccccc21 [Compound 14, 3-(4-Fluorophenyl)-1-phenyl-1H-benzo[g]indazol-4,5-dione] | 156 nmol cytochrome C that was reduced/min/ug NQO1 protein | – |
| O=C1C(=O)c2c(-c3ccc(F)c(F)c3)nn(-c3ccccc3)c2-c2ccccc21 [Compound 15, 3-(3,4-Difluorophenyl)-1-phenyl-1H-benzo[g]indazol-4,5-dione] | 190 nmol cytochrome C that was reduced/min/ug NQO1 protein | – |
| O=C1C(=O)c2c(CBr)nn(-c3ccccc3)c2-c2ccccc21 [Compound 16, 3-(Bromomethyl)-1-phenyl-1H-benzo[g]indazol-4,5-dione] | 596 nmol cytochrome C that was reduced/min/ug NQO1 protein | – |

| Compound | NQO1 activity assay Cytochrome C reduced/min/μg NQO1 protein (10 nM Compound (Table 1)) | other results |
| --- | --- | --- |
| CN(C)Cc1nn(-c2ccccc2)c2c1C(=O)C(=O)c1ccccc1-2 [Compound 17, 3-((Dimethylamino)methyl)-1-phenyl-1H-benzo[g]indazol-4,5-dione] | 254 nmol cytochrome C that was reduced/min/ug NQO1 protein | – |
| COCc1nn(-c2ccccc2)c2c1C(=O)C(=O)c1ccccc1-2 [Compound 18, 3-(Methoxymethyl)-1-phenyl-1H-benzo[g]indazol-4,5-dione] | 189 nmol cytochrome C that was reduced/min/ug NQO1 protein | – |
| CC(C)OCc1nn(-c2ccccc2)c2c1C(=O)C(=O)c1ccccc1-2 [Compound 19, 3-(Isopropoxymethyl)-1-phenyl-1H-benzo[g]indazol-4,5-dione] | 106 nmol cytochrome C that was reduced/min/ug NQO1 protein | – |
| Cc1nn(C(C)C)c2c1C(=O)C(=O)c1ccccc1-2 [Compound 20, 1-Isopropyl-3-methyl-1H-benzo[g]indazol-4,5-dione] | 918 nmol cytochrome C that was reduced/min/ug NQO1 protein | – |
| Cc1c2c(nn1C(C)C)-c1ccccc1C(=O)C2=O [Compound 21, 2-Isopropyl-3-methyl-2H-benzo[g]indazol-4,5-dione] | 925 nmol cytochrome C that was reduced/min/ug NQO1 protein | – |
| Cc1nn(C)c2c1C(=O)C(=O)c1ccccc1-2 [Compound 22, 1,3-Dimethyl-1H-benzo[g]indazol-4,5-dione] | 481 nmol cytochrome C that was reduced/min/ug NQO1 protein | – |
| Cc1c2c(nn1C)-c1ccccc1C(=O)C2=O [Compound 23, 2,3-Dimethyl-2H-benzo[g]indazol-4,5-dione] | 477 nmol cytochrome C that was reduced/min/ug NQO1 protein | – |
| O=C1C(=O)c2c(Cn3ccnc3)nn(-c3ccccc3)c2-c2ccccc21 [Compound 24, 3-((1H-Imidazol-1-yl)methyl)-1-phenyl-1H-benzo[g]indazol-4,5-dione] | 596 nmol cytochrome C that was reduced/min/ug NQO1 protein | – |
| Cc1nn(-c2ccc(F)cc2)c2c1C(=O)C(=O)c1ccccc1-2 [Compound 25, 1-(4-Fluorophenyl)-3-methyl-1H-benzo[g]indazol-4,5-dione] | 463 nmol cytochrome C that was reduced/min/ug NQO1 protein | – |
| Cc1nn(-c2ccc(Cl)cc2)c2c1C(=O)C(=O)c1ccccc1-2 [Compound 26, 1-(4-Chlorophenyl)-3-methyl-1H-benzo[g]indazol-4,5-dione] | 465 nmol cytochrome C that was reduced/min/ug NQO1 protein | – |
| Cc1nn(-c2cc(F)cc(F)c2)c2c1C(=O)C(=O)c1ccccc1-2 [Compound 27, 1-(3,5-Difluorophenyl)-3-methyl-1H-benzo[g]indazol-4,5-dione] | 415 nmol cytochrome C that was reduced/min/ug NQO1 protein | – |
| Cc1nn(-c2ccc(Cl)cc2Cl)c2c1C(=O)C(=O)c1ccccc1-2 [Compound 28, 1-(2,4-Dichlorophenyl)-3-methyl-1H-benzo[g]indazol-4,5-dione] | 745 nmol cytochrome C that was reduced/min/ug NQO1 protein | – |
| Cc1ccc(-n2nc(C)c3c2-c2ccccc2C(=O)C3=O)cc1 [Compound 29, 3-Methyl-1-p-tolyl-1H-benzo[g]indazol-4,5-dione] | 668 nmol cytochrome C that was reduced/min/ug NQO1 protein | – |
| Cc1nn(-c2ccccn2)c2c1C(=O)C(=O)c1ccccc1-2 [Compound 30, 3-Methyl-1-(pyridin-2-yl)-1H-benzo[g]indazol-4,5-dione] | 494 nmol cytochrome C that was reduced/min/ug NQO1 protein | – |
| Cc1nn(-c2cccnc2)c2c1C(=O)C(=O)c1ccccc1-2 [Compound 31, 3-Methyl-1-(pyridin-3-yl)-1H-benzo[g]indazol-4,5-dione] | 900 nmol cytochrome C that was reduced/min/ug NQO1 protein | – |
